Legend:
persian speedwell [1] = experiment: Test Example 4: herbicidal effect by soil treatment (Table 19, symbol R); assay type: in vivo, Persian speedwell (Veronica persica)
Method in brief: (§1)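 Soil-surface application: an emulsion agent diluted with water to the predetermined dose is sprayed uniformly over seeds lying under roughly 1.5 cm of sterilized diluvial soil. Boxes stay in a greenhouse at 25° C. to 30° C. Three weeks later, each species is graded on previously defined criteria.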

redroot pigweed = experiment: Test Example 4: herbicidal effect by soil treatment (Table 19, symbol N); assay type: in vivo, redroot pigweed (Amaranthus retroflexus)
Method in brief: as §1

wild oat [2] = experiment: Test Example 4: herbicidal effect by soil treatment (Table 19, symbol I); assay type: in vivo, wild oat (Avena fatua)
Method in brief: as §1

chickweed = experiment: Test Example 4: herbicidal effect by soil treatment (Table 19, symbol P); assay type: in vivo, common chickweed (Stellaria media)
Method in brief: as §1

green foxtail [3] = experiment: Test Example 4: herbicidal effect by soil treatment (Table 19, symbol G); assay type: in vivo, green foxtail (Setaria viridis)
Method in brief: as §1

southern crabgrass [4] = experiment: Test Example 4: herbicidal effect by soil treatment (Table 19, symbol F); assay type: in vivo, southern crabgrass (Digitaria ciliaris)
Method in brief: as §1

blackgrass [5] = experiment: Test Example 4: herbicidal effect by soil treatment (Table 19, symbol J); assay type: in vivo, blackgrass (Alopecurus myosuroides)
Method in brief: as §1

lambsquarters [6] = experiment: Test Example 4: herbicidal effect by soil treatment (Table 19, symbol O); assay type: in vivo, lambsquarters (Chenopodium album)
Method in brief: as §1

rice flat sedge = experiment: Test Example 3: herbicidal effect by foliage application, Wagner pot (Table 18, symbol E); assay type: in vivo, rice flat sedge (Cyperus iria)
Method in brief: (§2)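 Plants were sown in alluvial soil held under 0.1–0.5 cm standing water and grown 14 days in a greenhouse at 25–30 °C. An emulsifiable formulation, water-diluted to the set dose, was then sprayed onto the foliage, and effects were scored three weeks later using previously defined criteria.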

barnyard grass [7] = experiment: Test Example 3: herbicidal effect by foliage application, Wagner pot (Table 18, symbol H); assay type: in vivo, barnyard grass (Echinochloa crus-galli)
Method in brief: as §2

velvetleaf [8] = experiment: Test Example 4: herbicidal effect by soil treatment (Table 19, symbol M); assay type: in vivo, velvetleaf (Abutilon theophrasti)
Method in brief: as §1

windgrass [9] = experiment: Test Example 4: herbicidal effect by soil treatment (Table 19, symbol L); assay type: in vivo, windgrass (Apera spica-venti)
Method in brief: as §1

barnyard grass [10] = experiment: Test Example 4: herbicidal effect by soil treatment (Table 19, symbol H); assay type: in vivo, barnyard grass (Echinochloa crus-galli)
Method in brief: as §1

Italian ryegrass [11] = experiment: Test Example 4: herbicidal effect by soil treatment (Table 19, symbol K); assay type: in vivo, Italian ryegrass (Lolium multiflorum)
Method in brief: as §1

Chinese sprangletop = experiment: Test Example 3: herbicidal effect by foliage application, Wagner pot (Table 18, symbol D); assay type: in vivo, chinese sprangletop (Leptochloa chinensis)
Method in brief: as §2

persian speedwell [12] = experiment: Test Example 5: herbicidal effect by foliage application, plastic box (Table 20, symbol R); assay type: in vivo, Persian speedwell (Veronica persica); details: foliage application, 320 g/ha, 3 weeks after application
Method in brief: (§3)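 Sow seeds spot-wise in sterilized diluvial soil; cover with ~1.5 cm soil. Grow 14 days in greenhouse, 25° C. to 30° C. Spray foliage with emulsion diluted to predetermined amount. Rate effect after 3 weeks.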

blackgrass [13] = experiment: Test Example 5: herbicidal effect by foliage application, plastic box (Table 20, symbol J); assay type: in vivo, blackgrass (Alopecurus myosuroides); details: foliage application, 320 g/ha, 3 weeks after application
Method in brief: as §3

lambsquarters [14] = experiment: Test Example 5: herbicidal effect by foliage application, plastic box (Table 20, symbol O); assay type: in vivo, lambsquarters (Chenopodium album); details: foliage application, 320 g/ha, 3 weeks after application
Method in brief: as §3

windgrass [15] = experiment: Test Example 5: herbicidal effect by foliage application, plastic box (Table 20, symbol L); assay type: in vivo, windgrass (Apera spica-venti); details: foliage application, 320 g/ha, 3 weeks after application
Method in brief: as §3

green foxtail [16] = experiment: Test Example 5: herbicidal effect by foliage application, plastic box (Table 20, symbol G); assay type: in vivo, green foxtail (Setaria viridis); details: foliage application, 320 g/ha, 3 weeks after application
Method in brief: as §3

southern crabgrass [17] = experiment: Test Example 5: herbicidal effect by foliage application, plastic box (Table 20, symbol F); assay type: in vivo, southern crabgrass (Digitaria ciliaris); details: foliage application, 320 g/ha, 3 weeks after application
Method in brief: as §3

Italian ryegrass [18] = experiment: Test Example 5: herbicidal effect by foliage application, plastic box (Table 20, symbol K); assay type: in vivo, Italian ryegrass (Lolium multiflorum); details: foliage application, 320 g/ha, 3 weeks after application
Method in brief: as §3

wild oat [19] = experiment: Test Example 5: herbicidal effect by foliage application, plastic box (Table 20, symbol I); assay type: in vivo, wild oat (Avena fatua); details: foliage application, 320 g/ha, 3 weeks after application
Method in brief: as §3

barnyard grass [20] = experiment: Test Example 5: herbicidal effect by foliage application, plastic box (Table 20, symbol H); assay type: in vivo, barnyard grass (Echinochloa crus-galli); details: foliage application, 320 g/ha, 3 weeks after application
Method in brief: as §3

velvetleaf [21] = experiment: Test Example 5: herbicidal effect by foliage application, plastic box (Table 20, symbol M); assay type: in vivo, velvetleaf (Abutilon theophrasti); details: foliage application, 320 g/ha, 3 weeks after application
Method in brief: as §3

[22] = amount of applied herbicide 320 g/ha
[23] = amount of applied herbicide 84 g/ha

CCCC(=O)Oc1c(C)nn(C)c(=O)c1-c1c(-c2cnccc2F)sc2ccc(F)cc12 [2-384]
herbicidal effect, R: persian speedwell (persian speedwell [1]; [22]): 4 (Herbicidal rate of 70% or more and less than 90%) | herbicidal effect, N: redroot pigweed (redroot pigweed; [22]): 4 (Herbicidal rate of 70% or more and less than 90%) | herbicidal effect, I: wild oat (wild oat [2]; [22]): 1 (Herbicidal rate of 5% or more and less than 20%) | herbicidal effect, P: chickweed (chickweed; [22]): 4 (Herbicidal rate of 70% or more and less than 90%) | herbicidal effect, G: green foxtail (green foxtail [3]; [22]): 4 (Herbicidal rate of 70% or more and less than 90%) | herbicidal effect, F: southern crabgrass (southern crabgrass [4]; [22]): 3 (Herbicidal rate of 40% or more and less than 70%) | herbicidal effect, J: blackgrass (blackgrass [5]; [22]): 0 (Herbicidal rate of 5% or less (almost no effect)) | herbicidal effect, O: lambsquarters (lambsquarters [6]; [22]): 3 (Herbicidal rate of 40% or more and less than 70%) | herbicidal effect on E: rice flat sedge (rice flat sedge; [22]): 3 (Herbicidal rate of 40% or more and less than 70%) | herbicidal effect on H: barnyard grass (barnyard grass [7]; [22]): 3 (Herbicidal rate of 40% or more and less than 70%) | herbicidal effect, M: velvetleaf (velvetleaf [8]; [22]): 2 (Herbicidal rate of 20% or more and less than 40%) | herbicidal effect, L: windgrass (windgrass [9]; [22]): 0 (Herbicidal rate of 5% or less (almost no effect)) | herbicidal effect, H: barnyard grass (barnyard grass [10]; [22]): 3 (Herbicidal rate of 40% or more and less than 70%) | herbicidal effect, K: Italian ryegrass (Italian ryegrass [11]; [22]): 4 (Herbicidal rate of 70% or more and less than 90%) | herbicidal effect on D: Chinese sprangletop (Chinese sprangletop; [22]): 3 (Herbicidal rate of 40% or more and less than 70%)

Cc1nn(C)c(=O)c(-c2c(-c3c(F)cc(F)cc3F)sc3ccc(F)cc23)c1O [2-372]
herbicidal effect, R: persian speedwell (persian speedwell [1]; [23]): 0 (Herbicidal rate of 5% or less (almost no effect)) | herbicidal effect, N: redroot pigweed (redroot pigweed; [23]): 0 (Herbicidal rate of 5% or less (almost no effect)) | herbicidal effect, I: wild oat (wild oat [2]; [23]): 0 (Herbicidal rate of 5% or less (almost no effect)) | herbicidal effect, P: chickweed (chickweed; [23]): 0 (Herbicidal rate of 5% or less (almost no effect)) | herbicidal effect, G: green foxtail (green foxtail [3]; [23]): 0 (Herbicidal rate of 5% or less (almost no effect)) | herbicidal effect, F: southern crabgrass (southern crabgrass [4]; [23]): 0 (Herbicidal rate of 5% or less (almost no effect)) | herbicidal effect, J: blackgrass (blackgrass [5]; [23]): 0 (Herbicidal rate of 5% or less (almost no effect)) | herbicidal effect, O: lambsquarters (lambsquarters [6]; [23]): 0 (Herbicidal rate of 5% or less (almost no effect)) | herbicidal effect on E: rice flat sedge (rice flat sedge; [23]): 3 (Herbicidal rate of 40% or more and less than 70%) | herbicidal effect on H: barnyard grass (barnyard grass [7]; [23]): 4 (Herbicidal rate of 70% or more and less than 90%) | herbicidal effect, M: velvetleaf (velvetleaf [8]; [23]): 0 (Herbicidal rate of 5% or less (almost no effect)) | herbicidal effect, L: windgrass (windgrass [9]; [23]): 0 (Herbicidal rate of 5% or less (almost no effect)) | herbicidal effect, H: barnyard grass (barnyard grass [10]; [23]): 0 (Herbicidal rate of 5% or less (almost no effect)) | herbicidal effect, K: Italian ryegrass (Italian ryegrass [11]; [23]): 2 (Herbicidal rate of 20% or more and less than 40%) | herbicidal effect on D: Chinese sprangletop (Chinese sprangletop; [23]): 4 (Herbicidal rate of 70% or more and less than 90%)

Cc1nn(C)c(=O)c(-c2c(-c3ccc(F)cc3)sc3ccc(F)cc23)c1OCC(=O)c1ccccc1 [2-008]
herbicidal effect rating, R: persian speedwell (persian speedwell [1]; 320 g/ha): 0 (Herbicidal rate of 5% or less (almost no effect)) | herbicidal effect rating, N: redroot pigweed (redroot pigweed; 320 g/ha): 4 (Herbicidal rate of 70% or more and less than 90%) | herbicidal effect rating, I: wild oat (wild oat [2]; 320 g/ha): 0 (Herbicidal rate of 5% or less (almost no effect)) | herbicidal effect rating, P: chickweed (chickweed; 320 g/ha): 0 (Herbicidal rate of 5% or less (almost no effect)) | herbicidal effect rating, G: green foxtail (green foxtail [3]; 320 g/ha): 0 (Herbicidal rate of 5% or less (almost no effect)) | herbicidal effect rating, F: southern crabgrass (southern crabgrass [4]; 320 g/ha): 0 (Herbicidal rate of 5% or less (almost no effect)) | effect on persian speedwell (R) (persian speedwell [12]): 3 (Herbicidal rate of 40% or more and less than 70%) | herbicidal effect rating, O: lambsquarters (lambsquarters [6]; 320 g/ha): 0 (Herbicidal rate of 5% or less (almost no effect)) | herbicidal effect on E (rice flat sedge), rating 0-5 (rice flat sedge; 320 g/ha): 4 (Herbicidal rate of 70% or more and less than 90%) | effect on blackgrass (J) (blackgrass [13]): 0 (Herbicidal rate of 5% or less (almost no effect)) | effect on lambsquarters (O) (lambsquarters [14]): 1 (Herbicidal rate of 5% or more and less than 20%) | effect on windgrass (L) (windgrass [15]): 0 (Herbicidal rate of 5% or less (almost no effect)) | herbicidal effect on H (barnyard grass), rating 0-5 (barnyard grass [7]; 320 g/ha): 2 (Herbicidal rate of 20% or more and less than 40%) | effect on green foxtail (G) (green foxtail [16]): 0 (Herbicidal rate of 5% or less (almost no effect)) | herbicidal effect rating, M: velvetleaf (velvetleaf [8]; 320 g/ha): 0 (Herbicidal rate of 5% or less (almost no effect)) | herbicidal effect rating, L: windgrass (windgrass [9]; 320 g/ha): 0 (Herbicidal rate of 5% or less (almost no effect)) | herbicidal effect rating, H: barnyard grass (barnyard grass [10]; 320 g/ha): 0 (Herbicidal rate of 5% or less (almost no effect)) | herbicidal effect rating, K: Italian ryegrass (Italian ryegrass [11]; 320 g/ha): 0 (Herbicidal rate of 5% or less (almost no effect)) | effect on southern crabgrass (F) (southern crabgrass [17]): 0 (Herbicidal rate of 5% or less (almost no effect)) | herbicidal effect on D (Chinese sprangletop), rating 0-5 (Chinese sprangletop; 320 g/ha): 1 (Herbicidal rate of 5% or more and less than 20%) | effect on Italian ryegrass (K) (Italian ryegrass [18]): 3 (Herbicidal rate of 40% or more and less than 70%) | effect on wild oat (I) (wild oat [19]): 0 (Herbicidal rate of 5% or less (almost no effect)) | effect on barnyard grass (H) (barnyard grass [20]): 0 (Herbicidal rate of 5% or less (almost no effect)) | effect on velvetleaf (M) (velvetleaf [21]): 1 (Herbicidal rate of 5% or more and less than 20%)

COc1cc(Cl)ccc1-c1sc2ccc(F)cc2c1-c1c(O)c(C)nn(C)c1=O [2-368]
herbicidal effect, R: persian speedwell (persian speedwell [1]; [22]): 0 (Herbicidal rate of 5% or less (almost no effect)) | herbicidal effect, N: redroot pigweed (redroot pigweed; [22]): 2 (Herbicidal rate of 20% or more and less than 40%) | herbicidal effect, I: wild oat (wild oat [2]; [22]): 0 (Herbicidal rate of 5% or less (almost no effect)) | herbicidal effect, P: chickweed (chickweed; [22]): 0 (Herbicidal rate of 5% or less (almost no effect)) | herbicidal effect, G: green foxtail (green foxtail [3]; [22]): 0 (Herbicidal rate of 5% or less (almost no effect)) | herbicidal effect, F: southern crabgrass (southern crabgrass [4]; [22]): 0 (Herbicidal rate of 5% or less (almost no effect)) | herbicidal effect, J: blackgrass (blackgrass [5]; [22]): 0 (Herbicidal rate of 5% or less (almost no effect)) | herbicidal effect, O: lambsquarters (lambsquarters [6]; [22]): 3 (Herbicidal rate of 40% or more and less than 70%) | herbicidal effect on E: rice flat sedge (rice flat sedge; [22]): 3 (Herbicidal rate of 40% or more and less than 70%) | herbicidal effect on H: barnyard grass (barnyard grass [7]; [22]): 4 (Herbicidal rate of 70% or more and less than 90%) | herbicidal effect, M: velvetleaf (velvetleaf [8]; [22]): 0 (Herbicidal rate of 5% or less (almost no effect)) | herbicidal effect, L: windgrass (windgrass [9]; [22]): 4 (Herbicidal rate of 70% or more and less than 90%) | herbicidal effect, H: barnyard grass (barnyard grass [10]; [22]): 0 (Herbicidal rate of 5% or less (almost no effect)) | herbicidal effect, K: Italian ryegrass (Italian ryegrass [11]; [22]): 0 (Herbicidal rate of 5% or less (almost no effect)) | herbicidal effect on D: Chinese sprangletop (Chinese sprangletop; [22]): 3 (Herbicidal rate of 40% or more and less than 70%)
